Data published in US9034863B2, “Compositions and methods for inhibiting entry of a hepatic virus” (The Board of Trustees of the University of Illinois, priority 2008, dated 2015).

What was measured:
Format in all cases: cell-based, Hepatitis C virus (HCV)
HCV-JFH-1 = test: Chronic HCV-JFH-1 infection of Huh7-1 cells, inhibitor combinations, RT-qPCR 24-96 h (FIG. 3-5)
Protocol: RT-qPCR analysis of intracellular HCV RNA levels in Huh7 cultures mock-treated, treated with ezetimibe (30 μM), PI (200 nM), IFN-α (100 U/ml), or indicated combinations thereof (n=3). Data presented are representative of multiple independent experiments.
FIG. 4A, Chronically infected Huh7-1 cell cultures (n=3) treated with ezetimibe (E), naringenin (N), interferon α (I), or combinations thereof, were harvested at 24, 48, 72 or 96 hours post-treatment, intracellular HCV levels were quantified by RT-qPCR, and are presented as HCV copies/μg RNA. FIG. 4B, Chronically infected Huh7-1 cell cultures (n=3) treated with ezetimibe (E), ferristatin (T), interferon α (I), or combinations thereof, were harvested at 24, 48, 72 or 96 hours post-treatment, intracellular HCV levels were quantified by RT-qPCR, and are presented as HCV copies/μg RNA.
Shown are the results of RT-qPCR analysis of intracellular HCV RNA levels in Huh7 cultures mock-treated, treated with ezetimibe (30 μM), polymerase inhibitor, RG7128 (1 μM), or a combination thereof (n=3).
For experiments analyzing the activity of ezetimibe in combination with a protease inhibitor, Huh7-1 cells were infected with HCV-JFH-1 and allowed to reach steady state levels of infection. The HCV-infected cells were seeded in a 96-well plate and treated with the following: medium alone, 30 μM ezetimibe, 200 nM ITMN5537, 100 μ/ml IFN-α, and combinations of the above drugs at the specified concentrations. Medium and drugs were replaced every 24 hours. Triplicate wells were harvested at 24, 48, 72 or 96 hours post-treatment, in 200 μl/well of 1×ABI lysis buffer and stored at −80° C. until RNA extraction.
Therefore, the therapeutic potential of an IFN-free antiviral cocktail was also investigated, using ezetimibe in combination with other direct acting inhibitors of HCV amplification, specifically an inhibitor of the HCV NS3/4A protease (ITMN 5537; Intermune, Brisbane, Calif.). Huh7-1 cells were infected with HCV-JFH-1 and allowed to reach steady state levels of infection. Cells were monotreated with protease inhibitor (PI) or ezetimibe or IFN alone or treated with combinations of PI+ezetimibe or PI+IFN or IFN+ezetimibe or a combination of all three inhibitors. Samples were harvested at 24, 48, 72 or 96 hours post-treatment, the intracellular RNA was extracted and RT-qPCR performed to quantify HCV copies.
Thus, parallel cultures of chronically infected Huh7-1 cells were established and subsequently treated with ezetimibe, naringenin or IFN-α, either alone or in combination. Treatments were replenished every 24 hours. Triplicate cultures of each treatment condition were harvested at 24, 48, 72 or 96 hours post-treatment and intracellular HCV levels were quantified by RT-qPCR (FIG. 4A). […] Thus, no evidence of synergy was observed when IFN-α was combined with an egress inhibitor that only blocks cell-free spread.
As an alternative method of determining the therapeutic importance of inhibiting HCV cell-to-cell spread, an inhibitor to TfR1 was used. TfR1 has also been identified as another host cell factor that is involved in cell-free entry of HCV into cells, but is not required for cell-to-cell-mediated HCV entry. Thus, unlike ezetimibe which inhibits both cell-free and cell-to-cell HCV spread, the TfR1 inhibitor, ferristatin, only blocks cell-free virus spread. Again, chronically infected Huh7-1 cell cultures were established and treated with ezetimibe (30 μM), ferristatin (50 μM), or IFN-α (100 U/ml), either alone or in combination and treatments were replenished every 24 hours. Intracellular HCV copies were quantified from triplicate cultures by RT-qPCR at 24, 48, 72 or 96 hours post-treatment (FIG. 4B).
Huh7-1 cells were infected with HCV-JFH-1 and allowed to reach steady state levels of infection. Cells were monotreated with HCV polymerase inhibitor RG7128 (1 μM) or ezetimibe (30 μM) alone or treated with a combination of RG7128 and ezetimibe. […]

[1] = test system: intergenotypic HCVcc chimeras; test: Cell-to-cell spread of intergenotypic HCVcc chimeras in non-growing Huh7-1 cells
Excerpt: To determine if ezetimibe might be an effective therapeutic for inhibiting HCV spread of other HCV genotypes, intergenotypic HCVcc chimeras were used, in which the core through E2 region of the JFH-1 clone had been replaced with analogous regions of various HCV genotypes including H77C, J4, J8, ED43, SA13, HK6A and QC69 (Gottwein, et al. (2009) Hepatology 49(2):364-77). Again, to avoid issues of cell division, non-growing Huh7-1 cells were infected with the different chimeric viruses, and after 16 hours, the cells were washed and 0 μM or 30 μM ezetimibe was added to parallel cultures. Since the chimeras encode unique E2 proteins and thus may have differing sensitivity to inhibition by the anti-E2 antibody, in this experiment methyl cellulose was added to all cultures as an alternative means of minimizing cell-free virus spread. Seventy-two hours post-infection, the cells were fixed and stained with an antibody to HCV NS5A to detect the size of the foci formed. In all cases, the size of foci formed by each chimera were reduced in the presence of ezetimibe relative to the mock-treated control culture confirming not only that all of these genotypes use the NPC1L1 receptor for cell-to-cell spread, but that the spread of all the chimeric viruses can be inhibited by ezetimibe.
To determine if naringenin affects spread of any of the other HCV genotypes, non-growing Huh7-1 cells were infected with the different intergenic chimeric viruses and after 16 hours, the cells were washed and naringenin was added. Methyl cellulose was added to each well to prevent cell-free virus spread. In parallel, a control set of wells was treated with methyl cellulose alone. Five days post-infection, the cells were fixed and stained to detect the number of HCV NS5A-positive cells.

HCVcc^G451R = test: Infection of Huh7 cells with SR-B1-independent HCVcc G451R, intracellular HCV RNA
Protocol: Studies have shown that a G451R mutation in the viral envelope glycoprotein (E2) results in HCV virions of […] density and faster infection kinetics (thong, et al. (2006) J. Virol. 80:11082-11093). […] Thus, if ezetimibe was blocking HCV entry via an SR-B1 mediated mechanism, it would be expected that the mutant G451R virus would be less susceptible to the effects of ezetimibe. As a result, experiments were performed to assess the antiviral efficacy of ezetimibe against the SR-B1-independent HCVcc^G451R virus. Monolayers of Huh7 cells were inoculated with either wild-type HCVcc^JFH-1 or HCVcc^G451R at an MOI of 0.01 FFU/cell for 12 hours. Ezetimibe treatment at concentrations of 15 or 30 μM was initiated (and then continued) either 6 hours prior to infection, during the 12 hour incubation of the virus on the cells, or immediately following the 12 hour viral inoculation period. Ezetimibe at a concentration of 30 μM inhibited HCVcc^JFH-1 infection approximately 10-fold at 48 hours post-infection.

Compound | reduction of HCV levels (FIG. 5) (HCV-JFH-1; RG7128 1 μM, ezetimibe 30 μM, normalized to Mock) | reduction of HCV levels (FIG. 3) (HCV-JFH-1; ezetimibe 30 μM, PI 200 nM, IFN-α 100 U/ml) | decrease in intracellular HCV load (FIG. 4B) (HCV-JFH-1; ezetimibe 30 μM, ferristatin 50 μM, IFN-α 100 U/ml) | reduction of HCV copies (FIG. 4A) (HCV-JFH-1; ezetimibe, naringenin, IFN-α alone or in combination) | size of foci formed by each chimera ([1]; 30 μM, methyl cellulose, 72 hours post-infection, relative to mock-treated) | infection blocked (HCVcc^G451R) | increase in intracellular HCV copies (FIG. 4A) (HCV-JFH-1; naringenin alone) | size of foci, J8/JFH-1 (2B/JFH-1) chimera ([1]; J8/JFH-1 chimera) | cell-to-cell spread of chimeric viruses ([1]; all chimeric viruses except J8/JFH-1, five days post-infection)
O=C1[C@H](CC[C@H](O)c2ccc(F)cc2)[C@@H](c2ccc(O)cc2)N1c1ccc(F)cc1 [ezetimibe, 1-(4-fluorophenyl)-(3R)-[3-(4-fluorophenyl)-(3S)-hydroxypropyl]-(45)-(4-hydroxyphenyl)-2-azetidinone] | did not reduce HCV levels | did not reduce HCV levels | neither ezetimibe nor ferristatin alone reduced intracellular HCV load | did not reduce HCV levels | reduced | ~100% | – | – | –
O=C1C[C@@H](c2ccc(O)cc2)Oc2cc(O)cc(O)c21 [naringenin] | – | – | – | – | – | – | about 50% | reduced the size of foci | not inhibited
